Laboratory results reported in paper PMC12264943, “Identification of New Human P2X7 Antagonists Using Ligand- and Structure-Based Virtual Screening” (Journal of Chemical Information and Modeling, 2025).
Entries after “also recorded” stand apart in the source; their conditions may differ.

Legend:
Format in all cases: cell-based
[1] = molecular target: T1, hP2X7 (Homo sapiens, UniProt Q99572); assay: YO-PRO 1 dye uptake assay, HEK-293 cells stably transfected with hP2X7; conditions: for hP2X7 inhibition in YO-PRO 1 dye uptake, SAR / reduction of hP2X7 activity: analogues at 10 μM; for hP2X7 inhibition in YO-PRO 1 dye uptake, SAR: 1 mM ATP; for reduction of hP2X7 activity: YO-PRO 1, 1 mM ATP, 0.1% DMSO; for IC50: Table 1, table names no assay, values of 2 and 9 are from YO-PRO 1 dye uptake in hP2X7 HEK-293 cells, read-out: IC50
T1 construct: expressed in transfected cells; host or cells: HEK-293, stably transfected (gift of E. Adinolfi's group, Ferrara University)
T1 sequence (Q99572 1-595): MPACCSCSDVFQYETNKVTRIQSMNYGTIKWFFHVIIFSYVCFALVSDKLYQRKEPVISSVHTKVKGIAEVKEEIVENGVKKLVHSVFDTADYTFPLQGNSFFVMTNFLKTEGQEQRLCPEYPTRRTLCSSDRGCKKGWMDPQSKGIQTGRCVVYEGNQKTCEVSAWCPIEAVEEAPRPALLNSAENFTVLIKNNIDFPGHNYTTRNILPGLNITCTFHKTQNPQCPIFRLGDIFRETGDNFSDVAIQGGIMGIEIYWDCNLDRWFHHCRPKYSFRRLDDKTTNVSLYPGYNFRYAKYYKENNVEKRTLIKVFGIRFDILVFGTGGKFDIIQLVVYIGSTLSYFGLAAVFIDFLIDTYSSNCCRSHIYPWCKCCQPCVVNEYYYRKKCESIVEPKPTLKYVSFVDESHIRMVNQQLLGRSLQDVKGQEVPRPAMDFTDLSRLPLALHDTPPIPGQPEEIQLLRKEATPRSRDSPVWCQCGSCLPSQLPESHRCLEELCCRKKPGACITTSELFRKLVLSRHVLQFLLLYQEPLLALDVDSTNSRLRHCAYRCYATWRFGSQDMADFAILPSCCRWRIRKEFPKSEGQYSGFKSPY
Method: (§1) Astrocytoma 1321 N1 (established by Dr. Gaia Pasqualetto) and HEK-293 (kindly gifted by E. Adinolfi’s group, Ferrara University) both stably transfected with hP2X7, were used to assess the activity of the small molecules selected from the VS. Cells were maintained in DMEM:F12 (PanBiotech) supplemented with 10% FBS, 1% pen-strep, and 150 μg/mL G418 (PanBiotech).
(§2) Astrocytoma 1321 N1 cells (2–2.5 × 10^4 cells/well) and HEK-293 cells (4–5 × 10^4 cells/well) expressing hP2X7 were seeded in poly-L-lysine-coated 96-well plates (Sarstedt) 24 h before the experiment. YO-PRO 1 dye was prepared at 5 μM in extracellular solution with low divalent cations (ECS-LD) buffer (147 mM NaCl, 10 mM HEPES, 13 mM glucose, 0.2 mM CaCl2, 2 mM KCl, pH 7.4) and added to cells after washing them with Dulbecco’s phosphate- buffered saline (DPBS) (PanBiotech) and incubated for 20 min at 37 °C. ATP-induced dye uptake, mediated by hP2X7 activation, was monitored using a Clariostar plate reader (excitation: 485 nm; emission: 538 nm) for 30 cycles (75–150 s/cycle), after recording the baseline for five cycles. hP2X7 activation was quantified at cycle 10 by calculating the fluorescence intensity (FI) ratio (Δ(Fcycle 10–F cycle 1)/cycle time).
Compounds 2 and 9, identified as hits, were further evaluated for concentration-dependent inhibition (IC50) of hP2X7 activation in the YO-PRO 1 dye uptake assay using HEK-293 cells stably transfected with hP2X7 (unfortunately, at this point in the study, the stably transfected 1321N1 cells lost P2X7 expression, and we were unable to recover them from frozen aliquots), for which the ATP EC50 was determined to be approximately 1 mM (Supporting material Figure 4C). Seven concentrations (100 to 0.03 μM) were tested, but due to precipitation at 100 μM, the DMSO concentration was increased to 1%.
3 Inhibitory concentration response evaluation of compounds 2 and 9 and their groups highlighted for SAR. […] Compound activity was evaluated along a time of 20 min (75 s per cycle) after ATP addition (700 μM). The fluorescence intensity (FI) values of the first 10 cycles were considered for assessing their ability to inhibit hP2X7. The curves represent three biological replicates (n = 4 per replicate). Data were normalized by setting as 100% the FI recorded by hP2X7 HEK-293 cells incubated in 1% DMSO and stimulated by ATP, and as 0% the FI recorded by the same cells but treated with ECS-LD (assay buffer). (C) Highlighted areas of compound 2 considered for SAR study. R1 refers to the ethyl-benzyl group of the molecules, and R2 and R3 refer to the benzo-(1,3)-dioxol groups. (D) Highlighted areas of compound 9 considered for SAR study. We have defined the area highlighted in yellow and numbered as 1 as the “front” region of the molecule and the one colored in pink and named as 2 as the “back” region of the molecule. L highlights the urea and amide linkers of compounds 2 and 9, respectively.
4 Evaluation of compound 2 and 9 analogue activity using YO-PRO 1 and MPR assays. The activity of compound 2 (A and B) and 9 (C and D) analogues was evaluated in YO-PRO 1 (A and C) and MPR (B and D) assays. The compounds were tested at 10 μM and preincubated for either 20 (YO-PRO 1) or 30 min (MPR). The baseline was recorded for 5 cycles before ATP treatment (1 mM). Fluorescence was recorded for 25 (YO-PRO 1) or 5 min (MPR). The data were normalized by setting as 100% for the fluorescence measured from hP2X7 HEK-293 cells incubated with vehicle (0.1% DMSO) and treated with 1 mM ATP and 0% for the fluorescence recorded by the cells not treated with ATP. The data shown correspond to three independent biological replicates (3 technical replicates per experiment; error bars represent the SEM from the mean values of each biological replicate (n = 3)). The statistical analysis was performed with one-way Anova using Dunnett’s function (P**** < 0.0001; P*** < 0.0003; P** < 0.002; P* < 0.02).

[2] = molecular target: T1, hP2X7; assay: YO-PRO 1 dye uptake assay, 1321 N1 cells stably transfected with hP2X7; conditions: compound 30 μM, 700 μM ATP; for reduction of P2X7 activation: 0.3% DMSO
Method: as §1, §2
The P2X7 receptor, besides being a ligand-gated ion channel, forms large membrane pores following prolonged exposure to high concentrations of ATP, leading to apoptosis (Mackenzie et al. 2005). The YO-PRO 1 dye uptake assay, which measures dye influx through these pores, was selected as the primary screen. The fluorescence of YO-PRO 1 increases when it binds to DNA, enabling real-time monitoring of P2X7 activation (calculated as the rate of increase in fluorescence as YO-PRO 1 binds nuclear DNA).
The screening compounds were tested at 30 μM (0.3% DMSO) in 5 μM YO-PRO 1 dye diluted in freshly prepared ECS-LD buffer. Cells pretreated with the screening compounds were challenged with 700 μM ATP, and the fluorescence intensities were recorded. The negative control consisted of cells treated with 0.3% DMSO, while the positive control was 0.1 μM JNJ47965567, a selective P2X7 antagonist. ,
(§3) 2 Initial screening assays to identify hit compounds. (A) The compounds were screened at 30 μM in the YO-PRO 1 dye uptake using 1321 N1 cells stably transfected with hP2X7. Compound activity was evaluated along a time of 20 min (75 s per cycle) after ATP addition (700 μM). The fluorescence intensity (FI) values of the first 10 cycles were considered for assessing their ability to inhibit hP2X7. Compound responses were normalized to the fluorescent signal recorded on 0.3% DMSO cells treated with 700 μM ATP of each plate. […] (B) Compounds screened at 10 μM using MPR using 1321 N1 cells stably transfected with hP2X7. The compound activity was evaluated for 5 min after ATP addition (15 s per cycle). The fluorescence intensity recorded in the first cycles (before reaching a plateau response) was considered for assessing the small molecule’s ability to inhibit hP2X7. Compound responses were normalized to the fluorescence signal recorded on 0.1% DMSO cells treated with 700 μM ATP of each plate. […] One-way ANOVA and Dunnet test were used for statistical analysis (****P < 0.0001), (*P < 0.02).

[3] = molecular target: T1, hP2X7; assay: Membrane Potential Red (MPR) dye assay, 1321 N1 cells stably transfected with hP2X7; conditions: P2X7; compound 10 μM, 700 μM ATP
Method: as §1
Cells were plated as described for the YO-PRO 1 dye uptake assay. MPR dye (Molecular Devices) was prepared following the manufacturer’s protocol and diluted 1:10 in ECS-LD buffer. After washing with DPBS, cells were incubated with the dye for 30 min at 37 °C. Fluorescence changes (excitation: 525 nm; emission: 560 nm) were recorded using a Clariostar plate reader during ATP-induced membrane depolarization. Baseline fluorescence was recorded for 5 cycles, and ATP was added via an automated injector (10 μL). Membrane depolarization was quantified as the ratio of the maximal fluorescence change over baseline intensity (Δ(F max–F0)/F0)).
as §3, with “0.02). […]” for “0.02).”

[4] = molecular target: T1, hP2X7; assay: as above; conditions: compound 10 μM, 700 μM ATP

## CC(C)NC(=O)NC(Cc1ccc2c(c1)OCO2)Cc1ccc2c(c1)OCO2 [Compound 2a]
[1]
  hP2X7 inhibition in YO-PRO 1 dye uptake, SAR: reduced antagonist effects

## COc1ccc(CC(Cc2ccc3c(c2)OCO3)NC(=O)Nc2ccc(C)c(F)c2)cc1 (stereo not shown) [Compound 2b]
[1]
  hP2X7 inhibition in YO-PRO 1 dye uptake, SAR: diminished hP2X7 inhibition

## O=C(Nc1ccc(F)cc1F)NC(Cc1ccc2c(c1)OCO2)Cc1ccc2c(c1)OCO2 [Compound 2c]
[1]
  reduction of hP2X7 activity: 80%

## CNC(=O)NC(Cc1ccc(F)cc1)Cc1ccc2c(c1)OCO2 (stereo not shown) [Compound 2d]
[1]
  hP2X7 inhibition in YO-PRO 1 dye uptake, SAR: reduced antagonist effects

## CCOC(=O)c1ccccc1NC(=O)NC(Cc1ccc(OC)cc1)Cc1ccc2c(c1)OCO2 (stereo not shown) [Compound 2e]
[1]
  hP2X7 inhibition in YO-PRO 1 dye uptake, SAR: diminished hP2X7 inhibition

## O=C(NCCc1ccc2c(c1)OCO2)NCCN1CCN(c2ccccc2)CC1 [Compound 2f]
[1]
  hP2X7 inhibition in YO-PRO 1 dye uptake, SAR: reduced activity compared to 2

## CCOc1ccc(NC(=O)NC(Cc2ccc(F)cc2)Cc2ccc3c(c2)OCO3)cc1 (stereo not shown) [Compound 2h]
[1]
  reduction of hP2X7 activity: 80%

## COc1ccc(CCNC(=O)Nc2ccc3c(c2)OCO3)cc1OC [Compound 2j]
[1]
  hP2X7 inhibition in YO-PRO 1 dye uptake, SAR: reduced activity compared to 2

## O=C(NCc1ccc(Oc2ccc(F)cc2)cc1)c1ccccc1CN1C(=O)CNC1=O [Compound 4]
[2]
  activity in YO-PRO 1 dye uptake screen: no significant activity
[3]
  inhibition at 10 µM: ~90%
[4]
  activity in MPR screen, hP2X7-induced membrane depolarization: statistically inhibited

## COc1cccc(NC(=O)CSc2ccccc2C(=O)NCc2cn3ccccc3n2)c1 [Compound 6]
[2]
  activity in YO-PRO 1 dye uptake screen: antagonist activity
  reduction of P2X7 activation: at least 50%
[1]
  IC50: 20.9 µM
[4]
  activity in MPR screen, hP2X7-induced membrane depolarization: did not also block

## Cc1nn(-c2ccccc2)c(C)c1NC(=O)NCc1ccccc1Cn1cccn1 [Compound 7]
[2]
  activity in YO-PRO 1 dye uptake screen: antagonist activity
  reduction of P2X7 activation: at least 50%
[1]
  IC50: 4.23 µM
[4]
  activity in MPR screen, hP2X7-induced membrane depolarization: did not also block

## O=C(NCc1ccccc1)NC1(C(=O)NCc2ccccc2Cn2ccnc2)CCCC1 [Compound 8]
[2]
  activity in YO-PRO 1 dye uptake screen: antagonist activity
  reduction of P2X7 activation: at least 50%
[1]
  IC50: 4.07 µM
[4]
  activity in MPR screen, hP2X7-induced membrane depolarization: did not also block

## CN(C)C(=O)Cn1cc(NC(=O)c2cnc(-c3ccc4c(c3)OCO4)s2)cn1 [Compound 9a]
[1]
  hP2X7 inhibition in YO-PRO 1 dye uptake, SAR: reduced activity

## O=C(COC(=O)c1cccnc1SCC(=O)Nc1ccc2c(c1)OCO2)NCc1ccco1 [Compound 9c]
[1]
  hP2X7 inhibition in YO-PRO 1 dye uptake, SAR: compromised activity

## O=C(CSc1ncccc1C(=O)Nc1ccc(-n2cnnn2)cc1)Nc1ccc2c(c1)OCO2 [Compound 9d]
[1]
  hP2X7 inhibition in YO-PRO 1 dye uptake, SAR: activity comparable to that of 9

## O=C(CSc1ncccc1C(=O)N1CCN(c2ccccc2F)CC1)Nc1ccc2c(c1)OCO2 [Compound 9e]
[1]
  hP2X7 inhibition in YO-PRO 1 dye uptake, SAR: activity comparable to that of 9; also recorded: enhanced target inhibition

## CN(C)S(=O)(=O)c1cccc(COC(=O)c2cccnc2SCC(=O)Nc2ccc3c(c2)OCO3)c1 [Compound 9h]
[1]
  hP2X7 inhibition in YO-PRO 1 dye uptake, SAR: activity comparable to that of 9; also recorded: enhanced target inhibition
